# Reference: patent publication US20240148821A1, “PHARMACEUTICAL USE OF CYCLIC PEPTIDE COMPOUND” (CHUGAI SEIYAKU KABUSHIKI KAISHA, priority 2021, published 2024)
# Numbered stars: 1 amine (or outer) side, 2 acyl side, 3 side chain; on linkers, the order of the positions; unused ones are H or OH. Bridge positions count the residues as written; N and C are the ends. Square brackets hold non-standard residues; d marks the D form. Peptide text beside a SMILES is read from it. * marks the point of attachment. hPhe(3-Cl-4-CF3) = N[C@@H](CCc1ccc(C(F)(F)F)c(Cl)c1)C(=O)O; hPhe(3-F,4-CF3) = N[C@@H](CCc1ccc(C(F)(F)F)c(F)c1)C(=O)O; NMePhe(4-CF3) = CN[C@@H](Cc1ccc(C(F)(F)F)cc1)C(=O)O; Phe(4-CF3) = N[C@@H](Cc1ccc(C(F)(F)F)cc1)C(=O)O; NMePhe(4-Cl) = CN[C@@H](Cc1ccc(Cl)cc1)C(=O)O; NMePhe(4-Me) = CN[C@@H](Cc1ccc(C)cc1)C(=O)O; X72 = O=C([C@@H]1Cc2ccccc2N1[*:1])[*:2]; Phe(3-I) = N[C@@H](Cc1cccc(I)c1)C(=O)O; Pro(4,4-F2) = O=C(O)[C@@H]1CC(F)(F)CN1; NMeCha = CN[C@@H](CC1CCCCC1)C(=O)O; NMeCba = CN[C@@H](CC1CCC1)C(=O)O; NMeChg = CN[C@H](C(=O)O)C1CCCCC1; Gly(cPr) = N[C@H](C(=O)O)C1CC1; NMeD = CN[C@@H](CC(=O)O)C(=O)O; NMeL = CN[C@@H](CC(C)C)C(=O)O; NMeNva = CCC[C@H](NC)C(=O)O; NMeV = CN[C@H](C(=O)O)C(C)C; d(β3hA) = C[C@@H](N)CC(=O)O; NMeAib = CNC(C)(C)C(=O)O; Nle = CCCC[C@H](N)C(=O)O; Piperidide = C1CCN(*)CC1; Pyrrolidide = C1CCN(*)C1; Ac5c = NC1(C(=O)O)CCCC1; Aze = O=C(O)[C@@H]1CCN1; Sar = CNCC(=O)O
# System: Human pancreatic cancer cell line AsPC-1 (G12D mutation Kras)
# Experiment: AsPC-1 cell growth inhibition (AsPC-1 CGI)
# Type: cell-based
# Details: read-out: AsPC-1 cell growth inhibition, 50% growth inhibitory concentration (IC50 value); 96 hours, CellTiter-Glo, values classified in ranges
# Experimental: Test compounds were serially dilated with dimethyl sulfoxide, and 200 nL was then dispensed to a U-bottom 96-well plate using Labcyte Echo. […] The cell suspension was dispensed to a. plate containing a test compound at 100 μL per well and incubated at 37° C. in a 5% carbon dioxide gas incubator. 96 hours later, 80 μL of CellTiter-Glo (Promega) was added to each well and fluorescence was measured.
row,SMILES,IC50
1,CC[C@H](C)[C@@H]1NC(=O)[C@H](CC(C)C)N(C)C(=O)C[C@@H](C(=O)N2CCCCC2)N(C)C(=O)[C@H](CC(C)C)NC(=O)C(C)(C)N(C)C(=O)[C@H](Cc2ccc(C(F)(F)F)cc2)NC(=O)[C@H](Cc2cccc(I)c2)NC(=O)CN(C)C(=O)[C@H](CC2CCCCC2)N(C)C(=O)CN(C)C(=O)CN(C)C1=O [Compound 336] ([NMeL]I[Sar][Sar][NMeCha][Sar][Phe(3-I)][Phe(4-CF3)][NMeAib]L[NMeD]-Piperidide; lactam N-11),> 500 nM
2,CC[C@H](C)[C@@H]1NC(=O)[C@H](CC(C)C)N(C)C(=O)C[C@@H](C(=O)N2CCCCC2)N(C)C(=O)[C@H](C2CCCCC2)N(C)C(=O)C2(CCCC2)NC(=O)[C@@H]2Cc3ccccc3N2C(=O)[C@H](CCc2ccc(C(F)(F)F)c(Cl)c2)NC(=O)CN(C)C(=O)[C@H](CC2CCCCC2)N(C)C(=O)[C@@H]2CCN2C(=O)CN(C)C1=O [Compound 725] ([NMeL]I[Sar][Aze][NMeCha][Sar][hPhe(3-Cl-4-CF3)][X72][Ac5c][NMeChg][NMeD]-Piperidide; lactam N-11),> 500 nM
3,"CCC[C@H]1C(=O)N[C@@H]([C@@H](C)CC)C(=O)N(C)CC(=O)N(C)CC(=O)N(C)[C@@H](Cc2ccc(C)cc2)C(=O)N(C)CC(=O)N[C@@H](CCc2ccc(C(F)(F)F)c(Cl)c2)C(=O)N2CC(F)(F)C[C@H]2C(=O)NC2(CCCC2)C(=O)N(C)[C@@H](C2CCCCC2)C(=O)N(C)[C@H](C(=O)N2CCCC2)CC(=O)N1C [Compound 1296] ([NMeNva]I[Sar][Sar][NMePhe(4-Me)][Sar][hPhe(3-Cl-4-CF3)][Pro(4,4-F2)][Ac5c][NMeChg][NMeD]-Pyrrolidide; lactam N-11)",≤ 20 nM
4,CC(C)C[C@H]1C(=O)N[C@@H](C2CC2)C(=O)N(C)CC(=O)N(C)CC(=O)N(C)[C@@H](CC2CCCCC2)C(=O)N(C)CC(=O)N[C@@H](CCc2ccc(C(F)(F)F)c(Cl)c2)C(=O)N2CCC[C@H]2C(=O)NC2(CCCC2)C(=O)N(C)[C@@H](C(C)C)C(=O)N(C)[C@H](C(=O)N2CCCCC2)CC(=O)N1C [Compound 533] ([NMeL][Gly(cPr)][Sar][Sar][NMeCha][Sar][hPhe(3-Cl-4-CF3)]P[Ac5c][NMeV][NMeD]-Piperidide; lactam N-11),> 500 nM
5,"CC[C@H](C)[C@@H]1NC(=O)[C@H](CC(C)C)N(C)C(=O)C[C@@H](C)NC(=O)[C@H](C(C)C)N(C)C(=O)C2(CCCC2)NC(=O)[C@@H]2CCCN2C(=O)[C@H](CCc2ccc(C(F)(F)F)c(F)c2)NC(=O)CN(C)C(=O)[C@H](CC2CCCCC2)N(C)C(=O)CN(C)C(=O)CN(C)C1=O [Compound 1534] (cyclo([Ac5c][NMeV][d(β3hA)][NMeL]I[Sar][Sar][NMeCha][Sar][hPhe(3-F,4-CF3)]P))",> 500 nM
6,CC[C@H](C)[C@@H]1NC(=O)[C@H](CC(C)C)N(C)C(=O)C[C@@H](C(=O)N2CCCCC2)N(C)C(=O)[C@H](CC2CCCCC2)N(C)C(=O)C2(CCCC2)NC(=O)[C@@H]2CCCN2C(=O)[C@H](CCc2ccc(C(F)(F)F)c(Cl)c2)NC(=O)CN(C)C(=O)[C@H](CC2CCCCC2)N(C)C(=O)CN(C)C(=O)CN(C)C1=O [Compound 577] ([NMeL]I[Sar][Sar][NMeCha][Sar][hPhe(3-Cl-4-CF3)]P[Ac5c][NMeCha][NMeD]-Piperidide; lactam N-11),> 500 nM
7,CCCC[C@@H]1NC(=O)[C@H](Cc2cccc(I)c2)NC(=O)CN(C)C(=O)[C@H](Cc2ccc(Cl)cc2)N(C)C(=O)CN(C)C(=O)CN(C)C(=O)[C@H]([C@@H](C)CC)NC(=O)[C@H](CC(C)C)N(C)C(=O)C[C@@H](C(=O)N2CCCCC2)N(C)C(=O)[C@H](CC(C)C)NC(=O)[C@H](Cc2ccc(C(F)(F)F)cc2)N(C)C1=O [Compound 498] ([NMeL]I[Sar][Sar][NMePhe(4-Cl)][Sar][Phe(3-I)][Nle][NMePhe(4-CF3)]L[NMeD]-Piperidide; lactam N-11),> 500 nM
8,CCCC[C@@H]1NC(=O)C(C)(C)N(C)C(=O)[C@H](CCCC)NC(=O)[C@H](Cc2cccc(I)c2)NC(=O)CN(C)C(=O)[C@H](Cc2ccc(Cl)cc2)N(C)C(=O)CN(C)C(=O)CN(C)C(=O)[C@H]([C@@H](C)CC)NC(=O)[C@H](CC(C)C)N(C)C(=O)C[C@@H](C(=O)N2CCCCC2)N(C)C1=O [Compound 765] ([NMeL]I[Sar][Sar][NMePhe(4-Cl)][Sar][Phe(3-I)][Nle][NMeAib][Nle][NMeD]-Piperidide; lactam N-11),> 500 nM
9,CC[C@H](C)[C@@H]1NC(=O)[C@H](CC(C)C)N(C)C(=O)C[C@@H](C)NC(=O)[C@H](CC2CCC2)N(C)C(=O)C2(CCCC2)NC(=O)[C@@H]2CCCN2C(=O)[C@H](CCc2ccc(C(F)(F)F)c(Cl)c2)NC(=O)CN(C)C(=O)[C@H](CC2CCCCC2)N(C)C(=O)CN(C)C(=O)CN(C)C1=O [Compound 59] (cyclo([Ac5c][NMeCba][d(β3hA)][NMeL]I[Sar][Sar][NMeCha][Sar][hPhe(3-Cl-4-CF3)]P)),> 500 nM
